Source: patent publication US9493464B2, “Wee1 degradation inhibitors” (The Scripps Research Institute, priority 2012, dated 2016)

System: K328M-Wee1-luciferase
Assay: Wee1-luciferase assay (stabilization of K328M-Wee1-luciferase)
Format: cell-based
Settings: HeLa cells; result in words
From the text: Steady-state level of K328M-Wee1-Luciferase (K328M-Wee1-Luc) was divided by Luciferase level (Luc) and plotted.
Similar assays have previously been described; PubChem AID 1807.

stabilization of K328M-Wee1-luciferase | Structure (SMILES)
does not stabilize K328M-Wee1-luciferase | CCN(CC)CCNC(=O)c1c(C)[nH]c(/C=C2\C(=O)Nc3ccc(F)cc32)c1C [Sutent, reference compound]

Same assay, conditions: at 250 nM, reported relative to SR-1277 = 100%

Structure (SMILES) | % Inhibition, Wee1 Degradation
c1cnc2ccc3[nH]c(CNc4nc(N5CCOCC5)nc5c4ncn5-c4ccsc4)nc3c2c1 [SR-1281] | 22.0%
CCOC(=O)c1cccc2[nH]c(CNc3nc(N4CCOCC4)nc4c3ncn4C(C)C)nc12 [SR-1283] | 17.0%
Nc1ccc2[nH]c(CNc3nc(N4CCOCC4)nc4c3ncn4-c3ccsc3)nc2c1 [SR-1286] | 8.3%
Nc1cccc2[nH]c(CNc3nc(N4CCOCC4)nc4c3ncn4-c3ccsc3)nc12 [SR-1287] | 15.6%
c1ccc2[nH]c(CNc3nc(N4CCCCC4)nc4c3ncn4-c3ccsc3)nc2c1 [SR-1288] | 10.5%
C[C@@H](Nc1nc(NCc2nc3ccccc3[nH]2)c2ncn(-c3ccsc3)c2n1)c1ccccc1 [SR-1289] | 9.2%
c1ccc2[nH]c(CNc3nc(N4CCSCC4)nc4c3ncn4-c3ccsc3)nc2c1 [SR-1291] | 11.4%
c1ccc2[nH]c(CNc3nc(N4CCCC4)nc4c3ncn4-c3ccsc3)nc2c1 [SR-1293] | 9.9%
C=CCN(CC=C)c1nc(NCc2nc3ccccc3[nH]2)c2ncn(-c3ccsc3)c2n1 [SR-1295] | 8.2%
OCCN1CCN(c2nc(NCc3nc4ccccc4[nH]3)c3ncn(-c4ccsc4)c3n2)CC1 [SR-1296] | 10.0%
c1ccc2c(c1)CCN2c1nc(NCc2nc3ccccc3[nH]2)c2ncn(-c3ccsc3)c2n1 [SR-1297] | 7.9%
c1ccc2[nH]c(CNc3nc(NCCN4CCOCC4)nc4c3ncn4-c3ccsc3)nc2c1 [SR-1298] | 8.1%
NCCN1CCN(c2nc(NCc3nc4ccccc4[nH]3)c3ncn(-c4ccsc4)c3n2)CC1 [SR-1299] | 8.6%
O=C(O)c1cccc2[nH]c(CNc3nc(N4CCOCC4)nc4c3ncn4-c3ccsc3)nc12 [SR-1401] | 0.0%
CC(C)n1cnc2c(NCc3nc4c(C(=O)O)cccc4[nH]3)nc(N3CCOCC3)nc21 [SR-1402] | 0.0%
CC(C)n1cnc2c(NCc3nc4ccccc4[nH]3)nc(N3CCOCC3)nc21 [SR-648126] | 4.1%
c1ccc(N2CCN(c3nc(NCc4nc5ccccc5[nH]4)c4ncn(-c5ccsc5)c4n3)CC2)nc1 [SR-648378] | 4.0%
c1ccc(-n2cnc3c(NCc4nc5ccccc5[nH]4)nc(N4CCOCC4)nc32)cc1 [SR-649967] | 4.0%
CC(C)n1cnc2c(NCc3nc4ccccc4[nH]3)nc(Nc3cccnc3)nc21 [SR-655534] | 3.4%
CC(C)n1cnc2c(NCc3nc4ccccc4[nH]3)nc(Nc3ccncn3)nc21 [SR-656428] | 4.0%
O=C(NC1CC1)c1ccc(-c2nc(NCc3nc4ccccc4[nH]3)c3ncn(-c4ccsc4)c3n2)cc1 [SR-658807] | 3.6%
CC(C)n1cnc2c(NCc3nc4ccccc4[nH]3)nc(Nc3cnccn3)nc21 [SR-660754] | 5.3%
c1ccc2[nH]c(CNc3nc(Nc4cnccn4)nc4c3ncn4-c3ccsc3)nc2c1 [SR-660983] | 2.9%

Same assay, conditions: read-out: Wee1 Stabilization

Structure (SMILES) | EC50
CC(C)n1cnc2c(NCc3nc4ccccc4[nH]3)nc(Nc3cccnc3)nc21 [SR-655534] | 3800 nM
CC(C)n1cnc2c(NCc3nc4ccccc4[nH]3)nc(Nc3ccncn3)nc21 [SR-656428] | 4400 nM
CC(C)n1cnc2c(NCc3nc4ccccc4[nH]3)nc(Nc3cnccn3)nc21 [SR-660754] | 4000 nM

Further lines, results first:

EC50 | Structure (SMILES)
5300 nM | CC(C)n1cnc2c(NCc3nc4ccccc4[nH]3)nc(N3CCOCC3)nc21 [SR-648126]
4300 nM | c1ccc(N2CCN(c3nc(NCc4nc5ccccc5[nH]4)c4ncn(-c5ccsc5)c4n3)CC2)nc1 [SR-648378]
4300 nM | c1ccc(-n2cnc3c(NCc4nc5ccccc5[nH]4)nc(N4CCOCC4)nc32)cc1 [SR-649967]
4100 nM | O=C(NC1CC1)c1ccc(-c2nc(NCc3nc4ccccc4[nH]3)c3ncn(-c4ccsc4)c3n2)cc1 [SR-658807]
3800 nM | c1ccc2[nH]c(CNc3nc(Nc4cnccn4)nc4c3ncn4-c3ccsc3)nc2c1 [SR-660983]

Molecular target: T1, CK1δ (Homo sapiens, UniProt P48730)
T1 sequence (P48730 whole entry): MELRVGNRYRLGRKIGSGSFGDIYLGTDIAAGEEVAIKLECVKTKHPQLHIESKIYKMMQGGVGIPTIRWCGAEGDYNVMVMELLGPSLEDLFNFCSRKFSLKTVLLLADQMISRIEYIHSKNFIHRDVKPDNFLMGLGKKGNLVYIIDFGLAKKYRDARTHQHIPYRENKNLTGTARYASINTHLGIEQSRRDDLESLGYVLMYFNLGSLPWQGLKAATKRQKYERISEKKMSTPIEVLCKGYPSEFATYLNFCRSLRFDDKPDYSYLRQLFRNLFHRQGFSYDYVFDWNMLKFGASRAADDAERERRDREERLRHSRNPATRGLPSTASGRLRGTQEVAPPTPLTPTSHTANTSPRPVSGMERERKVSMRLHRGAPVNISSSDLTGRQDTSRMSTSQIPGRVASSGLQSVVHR
Assay: In vitro kinase assay, CK1d, 32P-ATP filter binding (Reaction Biology Corporation)
Format: biochemical
Settings: footnote a: determined by Reaction Biology Corporation; read-out: IC50 CK1d
Protocol: Compounds were tested in 10-dose IC50 mode with 3-fold serial dilution starting at 50 μM. […] Reactions were carried out at 10 μM ATP. Average and standard deviations of reactions carried out in triplicate are shown.
(§1) In vitro kinase assay to detect CK1 or FLT3 activity: CK1 and FLT3 assays as well as complete kinase profile of 296 kinases was performed by Reaction Biology Corporation. For FLT3 20 μM final Abltide was used, sequence: [[…]]. For CK1 (all isoforms) 20 μM CK1 tide was used, sequence: [KRRRAL[pS]VASLPGL] in a standard kinase assay with ^32P-ATP and purified kinase. Incorporation of ^32P-ATP into the peptide was measured after a filter-binding assay. In-house CK1d inhibition assays were performed using a standard homogenous time-resolved fluorescence resonance energy transfer (TR-FRET) format in 50 mM Hepes, pH 7.0, 2.5 mM MgCl2, 0.1 mg/ml bovine serum albumin, 1 mM DL-dithiothreitol, 0.01% Triton X-100 (all from Sigma-Aldrich). Briefly, the CK1δ substrate (DEKTDDE, containing CK1 consensus sequence; 4 μL of a 500 nM stock solution) is labeled with a small Ulight acceptor dye (PerkinElmer). In the presence of 10 μL of 10 nM CK1δ, the Ulight peptide is phosphorylated at a single amino acid that is specifically recognized by a europium chelate (Eu)-labeled phosphospecific antibody. Assays were performed in the presence of 2 μL of compound at different (measured) concentrations, and reactions were stopped by adding 10 μL of 4 nM Eu-anti-p-Topo-IIa (PerkinElmer) in Lance Detection Buffer (Perkin Elmer). Upon excitation of the Eu-labeled antibody, energy is transferred to the acceptor dye resulting in the emission of detected light at 665 nm.

IC50 | Structure (SMILES)
1130 nM | O=[N+]([O-])c1cccc2[nH]c(CNc3nc(N4CCOCC4)nc4c3ncn4-c3ccc(F)cc3)nc12 [SR-2362]

Molecular target: T1, CK1δ
Assay: In-house CK1d inhibition assay (TR-FRET)
Format: biochemical
Settings: footnote b: in-house CK1d assay
Protocol: as §1

Structure (SMILES) | IC50
O=[N+]([O-])c1cccc2[nH]c(CNc3nc(N4CCOCC4)nc4c3ncn4-c3cc(F)cc(F)c3)nc12 [SR-2368] | 75 nM
CN1CCN(c2nc(NCc3nc4cc(C(F)(F)F)ccc4[nH]3)c3ncn(-c4ccoc4)c3n2)CC1 [SR-2867] | 199 nM
CCOC(=O)c1ccc2[nH]c(CNc3nc(N4CCNCC4)nc4c3ncn4-c3ccoc3)nc2c1 [SR-2916] | 687 nM
Clc1ccc2[nH]c(CNc3nc(N4CCCNCC4)nc4c3ncn4-c3ccoc3)nc2c1 [SR-2917] | 120 nM
COC(=O)c1cccc2[nH]c(CNc3nc(N4CCNCC4)nc4c3ncn4-c3ccoc3)nc12 [SR-2927] | 33 nM
CN(C)C(=O)c1cccc2[nH]c(CNc3nc(N4CCNCC4)nc4c3ncn4-c3ccoc3)nc12 [SR-2928] | 107 nM
Fc1cccc(-n2cnc3c(NCc4ccc5c(c4)OCO5)nc(N4CCOCC4)nc32)c1 [SR-3061] | 199 nM

The remaining lines, values ahead:

IC50 | Structure (SMILES)
46 nM | O=[N+]([O-])c1cccc2[nH]c(CNc3nc(N4CCOCC4)nc4c3ncn4-c3cccc(F)c3)nc12 [SR-2364]
114 nM | O=[N+]([O-])c1cccc2[nH]c(CNc3nc(N4CCOCC4)nc4c3ncn4-c3ccccc3F)nc12 [SR-2366]
828 nM | CN1CCN(c2nc(NCc3nc4cc(Cl)ccc4[nH]3)c3ncn(-c4cccc(F)c4)c3n2)CC1 [SR-2870]
190 nM | CN1CCN(c2nc(NCc3nc4cc(F)ccc4[nH]3)c3ncn(-c4cccc(F)c4)c3n2)CC1 [SR-2871]
119 nM | NC1CCN(c2nc(NCc3nc4cc(Cl)ccc4[nH]3)c3ncn(-c4ccsc4)c3n2)CC1 [SR-2875]
51 nM | Clc1ccc2[nH]c(CNc3nc(N4CCNCC4)nc4c3ncn4-c3ccsc3)nc2c1 [SR-2876]
116 nM | c1ccc2[nH]c(CNc3nc(N4CCNCC4)nc4c3ncn4-c3ccoc3)nc2c1 [SR-2914]
199 nM | CC1CN(c2nc(NCc3nc4ccccc4[nH]3)c3ncn(-c4ccsc4)c3n2)CCN1 (stereo not drawn) [SR-2915]
101 nM | Fc1cccc(-n2cnc3c(NCc4nc5ccccc5[nH]4)nc(N4CCOCC4)nc32)c1 [SR-2931]
306 nM | CN1CCN(c2nc(NCc3nc4ccccc4[nH]3)c3ncn(-c4cccc(F)c4)c3n2)CC1 [SR-2932]
589 nM | CCN1CCN(c2nc(NCc3nc4ccccc4[nH]3)c3ncn(-c4cccc(F)c4)c3n2)CC1 [SR-2948]
2410 nM | CC(C)N1CCN(c2nc(NCc3nc4ccccc4[nH]3)c3ncn(-c4cccc(F)c4)c3n2)CC1 [SR-2949]
153 nM | Fc1cccc(-n2cnc3c(NCc4nc5c(Cl)cccc5[nH]4)nc(N4CCOCC4)nc32)c1 [SR-2950]
666 nM | Fc1cccc(-n2cnc3c(NCc4cccc5ccccc45)nc(N4CCOCC4)nc32)c1 [SR-3004]
> 10000 nM | Fc1cccc(-n2cnc3c(NCc4nc5ccccc5[nH]4)nc(N4CCCCC4)nc32)c1 [SR-3005]
884 nM | Fc1cccc(-n2cnc3c(NCc4nc5ccccc5[nH]4)nc(N4CCCC4)nc32)c1 [SR-3006]
> 10000 nM | c1ccc(-c2cccc(-n3cnc4c(NCc5nc6ccccc6[nH]5)nc(N5CCOCC5)nc43)c2)cc1 [SR-3048]
> 10000 nM | Fc1cccc(-n2cnc3c(NCc4nc5ccccc5[nH]4)nc(N4CCC(F)(F)CC4)nc32)c1 [SR-3060]
382 nM | NC1CN(c2nc(NCc3nc4ccccc4[nH]3)c3ncn(-c4cccc(F)c4)c3n2)C1 [SR-3084]
37 nM | Fc1cccc(-n2cnc3c(NCc4nc5c(F)cccc5[nH]4)nc(N4CCOCC4)nc32)c1 [SR-3086]
482 nM | OC1CN(c2nc(NCc3nc4ccccc4[nH]3)c3ncn(-c4cccc(F)c4)c3n2)C1 [SR-3087]
360 nM | NC1CN(c2nc(NCc3nc4cc(Cl)ccc4[nH]3)c3ncn(-c4cccc(F)c4)c3n2)C1 [SR-3095]
830 nM | C[C@@H]1CN(c2nc(NCc3nc4cc(Cl)ccc4[nH]3)c3ncn(-c4cccc(F)c4)c3n2)C[C@H](C)O1 [SR-3096]
150 nM | NC1CCN(c2nc(NCc3nc4cc(Cl)ccc4[nH]3)c3ncn(-c4cccc(F)c4)c3n2)C1 (stereo not drawn) [SR-3098]
88 nM | Fc1cccc(-n2cnc3c(NCc4nc5cc(F)ccc5[nH]4)nc(N4CCOCC4)nc32)c1 [SR-3162]
62 nM | Fc1cccc(-n2cnc3c(NCc4nc5cc(F)ccc5[nH]4)nc(N4CCNCC4)nc32)c1 [SR-3163]
